Results taken from ChEMBL document CHEMBL5518181, “Studies of antibacterial activity (in vitro and in vivo) and mode of action for des-acyl tridecaptins (DATs)” (Eur J Med Chem, 2024).
≈ marks a conversion by molar mass, not a printed value. Calls of active or inactive are those of the source. The rule behind the calls is not given here.

What was measured:
[1] = Hemolytic activity in human red blood cells at 400 ug/ml incubated for 45 mins by spectrophotometric analysis relative to control; format: toxicity, cell-based, Erythrocyte; conditions: red blood cells (erythrocytes), at 400 µg/mL, read-out: Activity
Escherichia coli [2] = assay: Antibacterial activity against wild-type Escherichia coli ATCC 25922 assessed as inhibition of bacterial growth by measuring fold increase in MIC incubated for 18 hrs in presence of 50% heat inactivated human serum relative to control; format: functional
[3] = Hepatotoxicity in cryopreserved rat primary hepatocytes; format: toxicity, cell-based, Hepatocyte
[4] = Genotoxicity in human TK6 cells measured after 3 to 24 hrs; format: toxicity, cell-based; conditions: time 3-24 hrs
Cytochrome P450 3A4 [5] = target: T1, Cytochrome P450 3A4 (Homo sapiens, UniProt P08684); assay: Induction of CYP3A4 (unknown origin); format: ADME
Cytochrome P450 3A4 [6] = target: T1, Cytochrome P450 3A4; assay: Inhibition of CYP3A4 (unknown origin); format: ADME
[7] = Clearance in rat microsomes; format: ADME, Microsome
[8] = Clearance in human microsomes; format: ADME, Microsome
[9] = Cmax in Swiss mouse lung at 10 mg/kg, iv administered as single bolus dose and measured upto 24 hrs by LC-MS/MS analysis; format: ADME, organism-based
[10] = AUClast in Swiss mouse plasma at 10 mg/kg, iv administered as single bolus dose and measured upto 24 hrs by LC-MS/MS analysis; format: ADME, organism-based
[11] = AUClast in Swiss mouse kidney at 10 mg/kg, iv administered as single bolus dose and measured upto 24 hrs by LC-MS/MS analysis; format: ADME, organism-based
Citrobacter freundii = assay: Antibacterial activity against Citrobacter freundii ATCC 8090 assessed as inhibition of bacterial growth incubated for 18 hrs; format: functional; conditions: read-out: MIC100
Providencia stuartii = assay: Antibacterial activity against Providencia stuartii ATCC 25826 assessed as inhibition of bacterial growth incubated for 18 hrs; format: functional; conditions: read-out: MIC100
Escherichia coli [12] = assay: Antibacterial activity against Escherichia coli ATCC 25922 assessed as inhibition of bacterial growth incubated for 18 hrs in presence of 2 mM CaCl2; format: functional, organism-based
Klebsiella pneumoniae [13] = assay: Antibacterial activity against Klebsiella pneumoniae ATCC 13883 assessed as inhibition of bacterial growth incubated for 18 hrs in presence of 25 mM bicarbonate; format: functional, organism-based
Klebsiella pneumoniae [14] = assay: Bactericidal activity against Klebsiella pneumoniae ATCC 13883 at 0 to 8 times MIC measured for 24 hrs by time-kill assay; format: functional, organism-based
[15] = Toxicity in naive mouse at 5 to 15 mg/kg, iv administered as single dose every 4 hrs for 24 hrs; format: organism-based; conditions: in vivo, dose 5-15 mg/kg
Escherichia coli [16] = assay: Antibacterial activity against Escherichia coli ATCC 35218 infected in Swiss albino mouse septicemia model assessed as log10 reduction in bacterial burden below stasis in spleen at 20 mg/kg, iv administered twice every 2 hrs and measured after 5 hrs; format: functional
Klebsiella pneumoniae [17] = assay: Antibacterial activity against Klebsiella pneumoniae ATCC 43816 infected in mouse urinary tract infection model assessed as reduction in bacterial burden in bladder at <10 mg/kg, iv administered every 4 hrs and measured after 26 hrs; format: functional, organism-based
Klebsiella pneumoniae [18] = assay: Antibacterial activity against Klebsiella pneumoniae ATCC 43816 infected in mouse urinary tract infection model assessed as reduction in bacterial burden in kidney at <10 mg/kg, iv administered every 4 hrs and measured after 26 hrs; format: functional, organism-based

T1 sequence (P08684 whole entry): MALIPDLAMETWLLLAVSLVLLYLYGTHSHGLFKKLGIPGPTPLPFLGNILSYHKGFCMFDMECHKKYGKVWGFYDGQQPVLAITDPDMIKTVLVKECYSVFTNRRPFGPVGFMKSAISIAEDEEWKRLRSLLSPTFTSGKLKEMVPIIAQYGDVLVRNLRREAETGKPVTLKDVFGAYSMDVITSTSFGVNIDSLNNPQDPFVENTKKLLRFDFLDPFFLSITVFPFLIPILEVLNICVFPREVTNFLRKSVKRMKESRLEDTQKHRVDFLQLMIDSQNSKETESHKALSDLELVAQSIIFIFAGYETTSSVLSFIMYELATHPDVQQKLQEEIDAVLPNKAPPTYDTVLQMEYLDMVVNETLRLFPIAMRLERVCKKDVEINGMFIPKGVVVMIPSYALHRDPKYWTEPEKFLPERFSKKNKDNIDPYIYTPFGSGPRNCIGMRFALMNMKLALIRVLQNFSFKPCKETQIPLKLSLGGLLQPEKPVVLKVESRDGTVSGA

In the case of `CC[C@H](C)[C@@H](NC(=O)[C@@H](NC(=O)[C@H](CCC(=O)O)NC(=O)[C@H](Cc1ccccc1)NC(=O)[C@@H](CCN)NC(=O)[C@H](CCN)NC(=O)[C@H](CO)NC(=O)[C@@H](Cc1c[nH]c2ccccc12)NC(=O)[C@@H](CO)NC(=O)CNC(=O)[C@@H](CCN)NC(=O)[C@H](NC(=O)[C@H](C)N)C(C)C)C(C)C)C(=O)N[C@@H](C)C(=O)O`, the hemolysis at 0.75 h, 400 ug/ml [1] is reported as 9.1%, the “fold change (FC)” value (Escherichia coli [2]) is reported as 2 and the Activity [3] is reported as “Non-Toxic”. The Activity [4] was “Non-Toxic”, the Activity (Cytochrome P450 3A4 [5]) was “Not Active” and the “inhibition (INH)” value (Cytochrome P450 3A4 [6]) was “Not Active”. It also gave a microsomal CLint [7] of 19 µL/min/mg, a microsomal CLint [8] of 23 µL/min/mg and a Cmax [9] of 17000 ng/mL. It also gave an AUC(0-t) at 24 h [10] of 82.5 µg·h/mL, an AUC(0-t) at 24 h [11] of 659 µg·h/mL and an MIC (Citrobacter freundii) of 4 µg/mL (≈ 2.73 µM). For the same compound, the MIC (Providencia stuartii) was > 32 µg/mL, the Activity (Escherichia coli [12]) was “Active” and the Activity (Klebsiella pneumoniae [13]) was “Active”. The Activity (Klebsiella pneumoniae [14]) was “Active”, the Activity [15] was “Non-Toxic” and the “log(activity)” value (Escherichia coli [16]) was 1. The Activity (Klebsiella pneumoniae [17]) was “Active” and the Activity (Klebsiella pneumoniae [18]) was “Active”.
